Where two headings read alike, the source gives them in different places.
How the values were obtained:
Kunming mice [1] = assay: Forced mouse swimming test; format: in vivo; settings: 10 mg/kg intraperitoneal, 3 days, last 4 of 6 min
Protocol: (§1) Animals: Kunming mice, male, body weight 18-22 g, SPF grade; SD rats, male, body weight 150-180 g, SPF grade. The test was carried out after acclimatization, and the animal was fasted for 12 hours before the test.
(§2) All drugs for the test were suspended and dispersed in a 1% aqueous solution of hydroxypropyl methylcellulose (HPMC), and shaken well before use. […] The doses for administration were all 10 mg/kg. For the concentration and volume for administration, see J Psychiatry Neurosci 2004; 29(2):126-133. The mice were intraperitoneally administered in a volume of 0.5 mL/20 g; and the rats were administered by i.g. in a volume of 2 mL/100 g.
Animal grouping and administration method were the same as those in the tail suspension test in mice. The mice were placed in a round glass vessel with a height of 20 cm, an inner diameter of 12 cm, a water depth of 10 cm and a water temperature of 25° C.

[2] = In vivo metabolism study, rat oral/tail vein injection model; settings: for half-life: read-out: t½ (converted); for bioavailability: oral 5 mg/kg vs intravenous 0.5 mg/kg, dose conversion, read-out: F % (bioavailability)
Protocol: Male SD rats, weighing 200±20 g, SPF grade, were purchased from SPF Biotechnology Co., Ltd.
TSQ Quantum liquid chromatography-mass spectrometer (LC/MS/MS) from Finnigan Inc, USA, chromatography column: TSKgel Amide-80 column (2.0 mm I.D.×100 mm, 5 μm); mobile phase: acetonitrile-water-formic acid (50:50:0.1); flow rate: 0.2 mL/min; injection volume: 5 μL; column temperature: room temperature. Ionization source is electrospray ionization (ESI) with 4.8 KV of spray voltage; capillary temperature (TEM): 300° C.; sheath gas: N2, flow rate: 10 psi; auxiliary gas: N2, flow rate: 1 psi; collision gas (CID): Ar at a pressure of 1.5 mTorr. The mass spectrometry scanning method was selective reaction monitoring (SRM) and detected by positive ion method. The internal standard was a […] solution of aconitine in acetonitrile, the minimum limit of quantification was 5 ng/mL, and the correlation coefficient was >0.99.
Formulation of a solution for intravenous administration: approximately 5 mg of each test drug was accurately weighed, and dissolved in 50 μL of DMSO. To the solution was added an appropriate amount of 40% PEG400 aqueous solution to prepare a 0.5 mg/mL solution. The administration volume was 0.2 mL/200 g body weight, and the dose was 0.5 mg/kg body weight according to concentration conversion.
Formulation of a solution for i.g. administration: approximately 5 mg of each test drug was accurately weighed, and suspended and dispersed with a 1% aqueous solution of HPMC to prepare a 1 mg/mL suspension. The administration volume was 1 mL/200 g body weight, and the dose was 5 mg/kg body weight in terms of concentration according to concentration conversion.
Rats were randomly divided into 4 groups of 5 rats each. Oral gavage and tail vein administration were carried out according to the above dosages. At 2 min, 5 min, 15 min, 30 min, 1 h, 1.5 h, 2 h, and 3 h after administration, blood was collected from an orbit, and centrifuged at 8000 rpm for 10 min. 50 μL of plasma was weighed, and added with 50 μL of internal standard and 150 μL of acetonitrile. The mixture was mixed by shaking, and centrifuged at 18000 rpm for 10 min. The supernatant was taken for LC/MS/MS injection and determination. The determined data were analyzed using a DAS pharmacokinetic program to calculate the main pharmacokinetic parameters.

SD rats [3] = assay: Anxiety behavior model of repeatedly administrated rat: O-maze test; format: in vivo; settings: D21, 5 minutes
Protocol: The requirements for test animals, drug formulation and administration were the same as those of the rat chronic mild stress model.
Instruments: Vogel drinking anxiety device for rat and O-maze device for rat were manufactured by Shanghai XinRuan Company. The rat feeding chamber was a home-made white plastic box (60×45×25 cm).
The rats were administrated continuously by i.g. once a day. A novelty-suppressed feeding test, a Vogel drinking conflict test, and an O-maze test were performed on a different day, respectively. Each behavior test was performed at 9:00-12:00, and the administration time was 16:00-17:00. The test process was as follows: D12, novelty-suppressed feeding test (animals were fasted for 48 hours before the test); D18, Vogel drinking conflict test (animals were banned from water for 48 hours before the test); D21, O-maze test.
An O-maze device was placed in the center of a dark room and illuminated with an infrared light during the test. The animal was placed in the center of a closed arm of an O-maze track, timed for 5 minutes, and the activity of the rat in the maze was monitored by an infrared camera. Animals in each group were given a single intragastric administration 60 min before the test. Observation indicators were the number of times the rat entered the open arm and the accumulated dwell time in the open arm.

Kunming mice [4] = assay: Tail suspension test (TST) in mice; format: in vivo, mouse; settings: 10 mg/kg intraperitoneal, 3 days, last 4 of 6 min
Protocol: as §1, §2
Mice were randomly divided into groups according to weight balance. Intraperitoneal injection was administered for three consecutive days, once a day, and the tail suspension test were performed 30 minutes after the third day. The tail suspension box was 25×25×35 cm, and a small clip was connected with a rope at the center of the top plate. An adhesive tape was stuck to the tail of the mouse 2 cm away from the tail end, and the adhesive tape was clamped with the clip to make the mouse in an inverted position. The duration of immobility was recorded during the last 4 minutes of total 6 minutes observed.

SD rats [5] = assay: Acute toxicity test of rat; format: in vivo; settings: for Acute reaction after single administration / Adverse reactions during 14-day observation / Body weight compared with the blank group: rats, 2000 mg/kg i.g.
Protocol: Rats were administered by i.g. at a dose of 2000 mg/kg. The drugs were dispersed with a 1% aqueous solution of hydroxypropyl methylcellulose (HPMC).

| Compound | Immobility time (Kunming mice [1]) [s] | AUC(0-t) ([2]; oral 5 mg/kg) [ng·h/mL] | Dwell time in the open arm (SD rats [3]; 10 mg/kg i.g.) [s] | Number of times entering the open arm (SD rats [3]; 10 mg/kg i.g.) | Dwell time in the open arm (SD rats [3]; 20 mg/kg i.g.) [s] | Number of times entering the open arm (SD rats [3]; 20 mg/kg i.g.) | Dwell time in the open arm (SD rats [3]; 40 mg/kg i.g.) [s] | Number of times entering the open arm (SD rats [3]; 40 mg/kg i.g.) | Immobility time (Kunming mice [4]) [s] | Acute reaction after single administration (SD rats [5]) | Adverse reactions during 14-day observation (SD rats [5]) | Body weight compared with the blank group (SD rats [5]) | other results |
| --- | --- | --- | --- | --- | --- | --- | --- | --- | --- | --- | --- | --- | --- |
| [2H]C([2H])([2H])Oc1cc2c(CCNC(C)=O)cccc2cc1Cl [Example 1, N-(2-(6-chloro-7-deuteromethoxy-naphthalen-1-yl)ethyl)acetamide] | 73.0 ± 18.2 | 248.83 | 201 ± 17 | 8.8 ± 0.9 | 245 ± 6 | 10.89 ± 0.7 | 171 ± 27 | 6.3 ± 1.1 | 55.7 ± 19.7 | the activity of the rats became slightly smaller but there were no obvious adverse reactions | no obvious adverse reactions within 14 days after the administration | no significant difference in body weight compared with the blank group | half-life ([2]; male, SD, plasma, intravenous injection 0.5 mg/kg): 28.8 min; AUC(0-t) ([2]; male, SD, plasma, iv, 0.5 mg/kg, intravenous injection 0.5 mg/kg, read-out: AUC(0-t)): 48.9 ng·h/mL; bioavailability ([2]; male, SD, plasma): 50.9%; half-life ([2]; male, SD, plasma, oral 5 mg/kg): 29.4 min; AUC(0-t) ([2]; male, SD, plasma, po, 5 mg/kg, oral 5 mg/kg, read-out: AUC(0-t)): 249 ng·h/mL; Dwell time in the open arm (SD rats [3]; 5 mg/kg i.g.): 131 ± 30 s; Number of times entering the open arm (SD rats [3]; 5 mg/kg i.g.): 4.8 ± 0.9; Safety compared with control drug (SD rats [5]; rat model, overall): safer than the control drug Agomelatine |
| COc1ccc2cccc(CCNC(C)=O)c2c1 [Agomelatine, reference compound] | 113.5 ± 26.6 | 51.57 | 126 ± 15 | 2.25 ± 0.4 | 196 ± 30 | 3.1 ± 0.8 | 170 ± 29 | 6.2 ± 1.0 | 75.1 ± 21.4 | 8 rats were slow to move or became lethargic, and all returned to normal within 2 hours | no obvious adverse reactions within 14 days after the administration | no significant difference in body weight compared with the blank group | half-life ([2]; male, Sprague-Dawley (SD), plasma, intravenous injection 0.5 mg/kg): 20.4 min; AUC(0-t) ([2]; male, Sprague-Dawley (SD), plasma, iv, 0.5 mg/kg, intravenous injection 0.5 mg/kg, read-out: AUC(0-t)): 102 ng·h/mL; bioavailability ([2]; male, Sprague-Dawley (SD), plasma): 5.05%; half-life ([2]; male, Sprague-Dawley (SD), plasma, oral 5 mg/kg): 40.2 min; AUC(0-t) ([2]; male, Sprague-Dawley (SD), plasma, po, 5 mg/kg, oral 5 mg/kg, read-out: AUC(0-t)): 51.6 ng·h/mL |
